Data: patent publication US20200038416A1, “METHODS OF TREATING CARDIAC CONDUCTION DEFECTS USING AMINOSTEROL COMPOSITIONS” (Enterin, Inc., priority 2018, published 2020)
Entries after “also recorded” stand apart in the source; their conditions may differ.

Tests used:
[1] = test system: mice with constipation due to overexpression of human αS; conditions: mouse models of PD, oral administration; cited from earlier work
[2] = Prior clinical trials of intravenous squalamine; assay type: in vivo, human; conditions: prior studies
Description: Systemic absorption of the aminosterol following oral administration was negligible both in this study and in prior studies involving mice, rats and dogs. […] The topical action would also explain why adverse events were largely confined to the gastrointestinal tract.
In the current clinical trial, squalamine (ENT-01) was administered orally to subjects with PD who have long standing constipation. Although this trial was the first in man oral dosing study of ENT-01, humans have long been exposed to low doses of squalamine (milligram to microgram) in the various commercial dogfish shark liver extracts available as nutraceuticals (e.g., Squalamax).

[3] = prior studies; cited from earlier work
[4] = mice, systemic administration; into the duodenum through the biliary tract; cited from earlier work
[5] = Oral bioavailability / systemic absorption estimate versus prior IV pharmacokinetic data; assay type: in vivo, human; conditions: this study, PD patients
Description: PK data were collected on the 10 patients enrolled in Stage 1 and 10 patients enrolled in Stage 2 to determine the extent of systemic absorption. In Stage 1, PK data were obtained at each visit, pre-medication, at 1, 2, 4, 8 and 24 hours (Table 10). In Stage 2, PK was measured on days 1 and 6 of the randomization period pre-medication, at 1, 2, 4 and 8 hours (Table 11).

[6] = test system: IPANs (intrinsic primary afferent neuron); conditions: perfusion through lumen of isolated bowel segment; cited from earlier work

CC(C)[C@@H](CC[C@@H](C)[C@H]1CC[C@H]2[C@@H]3[C@H](O)C[C@H]4C[C@@H](NCCCNCCCCN)CC[C@]4(C)[C@H]3CC[C@]12C)OS(=O)(=O)O [squalamine]
gastrointestinal motility [1]: stimulates gastro-intestinal motility; also recorded: reverse gastrointestinal dysmotility
systemic blood levels after intravenous versus oral administration [2]: one thousand-fold greater
effect of intravenous administration on gastrointestinal motility [3]: not associated with increased gastrointestinal motility
clearance and excretion [4]: cleared by the liver and excreted as the intact molecule
systemic absorption following oral administration [5]: negligible; also recorded: not significantly absorbed
effect on IPANs of the ENS [6]: excitation of IPANs
